For the series, the system named is GENE-TOX genotoxicity assays, various organisms and cells. Put plainly: GENE-TOX mutagenicity studies. The settings on record: for call: Assay Type: In vivo carcinogenicity studies.
[1] abbreviates: Species/Cell Type: Saccharomyces cerevisiae, Assay Type: Mitotic recombination or gene conversion, Assay Code: YEC-, Evaluation Type: Evaluation A (Pre-1980).
[2] abbreviates: Species/Cell Type: Salmonella typhimurium (one or more of the five standard strains: TA98, TA100, TA1535, TA1537, and TA1538), Assay Type: Histidine reverse gene mutation, Ames assay, Assay Code: SAL+*, Activation: With metabolic activation, Evaluation Type: Evaluation A (Pre-1980).
Where [3] appears, read: Species/Cell Type: Salmonella typhimurium (one or more of the five standard strains: TA98, TA100, TA1535, TA1537, and TA1538), Assay Type: Histidine reverse gene mutation, Ames assay, Assay Code: SAL+, Evaluation Type: Evaluation A (Pre-1980).
Setting [4] is: Species/Cell Type: Nonhuman, Assay Code: CCG-L, Evaluation Type: Evaluation A (Pre-1980).
Where [5] appears, read: Species/Cell Type: Rodents, Sex: Male, Assay Type: Dominant lethal test, Assay Code: DLT-, Evaluation Type: Evaluation A (Pre-1980).
Where [6] appears, read: Species/Cell Type: Allium cepa, Assay Type: Chromosome aberrations, Assay Code: ALC+, Evaluation Type: Evaluation A (Pre-1980).
[7] abbreviates: Species/Cell Type: Mammalian polychromatic erythrocytes, Assay Type: Micronucleus test, chromosome aberrations, Assay Code: MNTT, Evaluation Type: Evaluation B (Post-1980).
[8] abbreviates: Species/Cell Type: Salmonella typhimurium (one or more of the five standard strains: TA98, TA100, TA1535, TA1537, and TA1538), Assay Type: Histidine reverse gene mutation, Ames assay, Assay Code: SALT, Evaluation Type: Evaluation A (Pre-1980).

Our source for the mutagenic call and call values is PubChem BioAssay AID1259408 (Genetic Toxicology Data Bank (GENE-TOX), 2018).

Activity calls are given as the source filed them. The rule behind the calls is not given here.

On to `CCN(CC)c1ccc2c(-c3ccccc3C(=O)O)c3ccc(=[N+](CC)CC)cc-3oc2c1`, for which the mutagenic call is “no conclusion” (Species/Cell Type: Bacillus subtilis (H17 vs M45T), Assay Type: Rec-assay, spot test, DNA effects (bacterial DNA repair), Assay Code: REXT, Evaluation Type: Evaluation A (Pre-1980)); “no conclusion” (Species/Cell Type: Drosophila melanogaster, Assay Type: Sex-linked recessive lethal gene mutation, Assay Code: SRLT, Evaluation Type: Evaluation A (Pre-1980)); “no conclusion” (Species/Cell Type: Nonhuman, Assay Type: Sister-chromatid exchange (SCE) in vivo, Assay Code: SC3T, Evaluation Type: Evaluation B (Post-1980)); “inactive; negative” under setting [1]; “active; positive” under setting [2]. Besides, for the setting “Species/Cell Type: Nonhuman, Assay Code: CCGT, Evaluation Type: Evaluation A (Pre-1980)”, the call is listed as “no conclusion”.

Consider `CCN(CCCCCCN(CC)C(=O)C(Cl)Cl)C(=O)C(Cl)Cl`, for which, where the note is “Species/Cell Type: Human, Sex: Male, Assay Type: Sperm morphology, Assay Code: SPH+, Evaluation Type: Evaluation A (Pre-1980)”, the mutagenic call is “active; positive”.

For the molecule `ONc1ccc(-c2ccccc2)cc1`, under setting [3], the mutagenic call is “active; positive”.

In the case of `NC(=S)Nc1ccccc1`, the call under setting [4] is “inactive; negative”.

For the molecule `BrCC(Br)C(Br)CBr` (stereo not drawn), the mutagenic call under setting [5] was “inactive; negative”.

For `N.N.[Cl-].[Cl-].[Cl-].[Cl-].[Pt+4]`, where the note is “Species/Cell Type: Nonhuman, Assay Type: Sister-chromatid exchange (SCE) in vitro, Assay Code: SC2+, Evaluation Type: Evaluation B (Post-1980)”, the mutagenic call was “active; positive”.

As to `CC(C)(C)Br`, where the note is “Species/Cell Type: Escherichia coli polA (W3119 vs P3478), Assay Type: Rec-assay, DNA effects (bacterial DNA repair), Assay Code: RE1-, Evaluation Type: Evaluation A (Pre-1980)”, the mutagenic call is “inactive; negative”.

In the case of `O=[N+]([O-])c1ccc(-c2nc(N3CCOCC3)c3ccccc3n2)s1`, under setting [3], the mutagenic call is “active; positive”.

For the molecule `ClN1CCCCC1`, the mutagenic call (Species/Cell Type: Mammalian polychromatic erythrocytes, Assay Type: Micronucleus test, chromosome aberrations, Assay Code: MNT-, Evaluation Type: Evaluation B (Post-1980)) is “inactive; negative”.

Consider `NC[C@@H]1OC(O[C@H]2[C@@H](O)[C@H](O[C@@H]3[C@@H](O)[C@H](N)C[C@H](N)[C@H]3O[C@H]3O[C@H](CN)[C@@H](O)[C@H](O)[C@H]3N)O[C@@H]2CO)[C@H](N)[C@@H](O)[C@@H]1O` (stereo partly drawn), for which the mutagenic call (Species/Cell Type: Rat, Sex: Male, Assay Type: Sperm morphology, Assay Code: SPA+, Evaluation Type: Evaluation A (Pre-1980)) is “active; positive”.

With `CCCCN(CC(C)=O)N=O`, the mutagenic call under setting [2] was “active; positive”.

Take `CCCCNC(=O)n1c(NC(=O)OC)nc2ccccc21`: the mutagenic call runs as follows: under setting [6], “active; positive”; (Species/Cell Type: Aspergillus nidulans, Assay Type: Aneuploidy, chromosome aberrations, Assay Code: ASN+, Evaluation Type: Evaluation A (Pre-1980)) “active; positive”; (Species/Cell Type: Aspergillus nidulans, Assay Type: Mitotic recombination, Assay Code: ASG-, Evaluation Type: Evaluation A (Pre-1980)) “inactive; negative”; (Species/Cell Type: Escherichia coli WP2, Assay Type: Tryptophan reverse gene mutation, Assay Code: WP2T, Evaluation Type: Evaluation A (Pre-1980)) “no conclusion”; (Species/Cell Type: Escherichia coli WP2 UVRA, Assay Type: Tryptophan reverse gene mutation, Assay Code: WPU+, Evaluation Type: Evaluation A (Pre-1980)) “active; positive”; under setting [1], “inactive; negative”. Moreover, the mutagenic call (Species/Cell Type: Salmonella typhimurium, Assay Type: Forward and reverse gene mutation, host-mediated assay, Assay Code: HMA-, Evaluation Type: Evaluation A (Pre-1980)) is “inactive; negative”.

For `CCN(CC)C(=O)[C@@H]1C=C2c3cccc4[nH]cc(c34)C[C@H]2N(C)C1`, the mutagenic call under setting [6] is “active; positive”; the mutagenic call (Species/Cell Type: Arabidopsis species, Assay Type: Gene mutation, Assay Code: ARM-, Evaluation Type: Evaluation A (Pre-1980)) was “inactive; negative”; the mutagenic call (Species/Cell Type: Drosophila melanogaster, Assay Type: Aneuploidy, partial sex chromosome loss, chromosome aberrations, Assay Code: DAP+M, Evaluation Type: Evaluation A (Pre-1980)) is “active; positive”; the mutagenic call (Species/Cell Type: Drosophila melanogaster, Assay Type: Aneuploidy, sex chromosome gain, chromosome aberrations, Assay Code: DAG+M, Evaluation Type: Evaluation A (Pre-1980)) is “active; positive”; the mutagenic call (Species/Cell Type: Drosophila melanogaster, Assay Type: Aneuploidy, whole sex chromosome loss, chromosome aberrations, Assay Code: DAC+M, Evaluation Type: Evaluation A (Pre-1980)) is “active; positive”; the mutagenic call (Species/Cell Type: Drosophila melanogaster, Assay Type: Sex-linked recessive lethal gene mutation, Assay Code: SRL+, Evaluation Type: Evaluation A (Pre-1980)) was “active; positive”. The mutagenic call is “inactive; negative” (Species/Cell Type: Drosophila melanogaster, Sex: Male, Assay Type: Heritable translocation test, chromosome aberrations, Assay Code: DHT-, Evaluation Type: Evaluation A (Pre-1980)); “active; positive” (Species/Cell Type: Hordeum vulgare (barley), Assay Type: Chromosome aberrations, Assay Code: HOC+, Evaluation Type: Evaluation A (Pre-1980)); “inactive; negative” (Species/Cell Type: Human lymphocytes or leukocytes, Assay Type: Chromosome aberrations in vitro, Assay Code: CY7-, Evaluation Type: Evaluation A (Pre-1980)); “no conclusion” (Species/Cell Type: Human lymphocytes or leukocytes, Assay Type: Chromosome aberrations in vivo, Assay Code: CY8T, Evaluation Type: Evaluation A (Pre-1980)); “inactive; negative” (Species/Cell Type: Mammalian germ cells, Sex: Male, Assay Type: Chromosome aberrations in vivo, Assay Code: CY9-, Evaluation Type: Evaluation A (Pre-1980)); “inactive; negative” (Species/Cell Type: Mammalian oocytes or early embryo, Assay Type: Chromosome aberrations in vivo, Assay Code: CYO-, Evaluation Type: Evaluation A (Pre-1980)). In addition, the mutagenic call was “no conclusion” (Species/Cell Type: Mammalian polychromatic erythrocytes, Assay Type: Micronucleus test, chromosome aberrations, Assay Code: MNTT, Evaluation Type: Evaluation A (Pre-1980)); “inactive; negative” (Species/Cell Type: Nonhuman, Assay Type: Chromosome aberrations in vitro, Assay Code: CY&-, Evaluation Type: Evaluation A (Pre-1980)); “inactive; negative” under setting [5]; “inactive; negative” (Species/Cell Type: Vicia faba, Assay Type: Chromosome aberrations, Assay Code: VIC-, Evaluation Type: Evaluation A (Pre-1980)).

For `C[C@@H]1O[C@H]1P(=O)(O)O`, the mutagenic call under setting [7] is reported as “no conclusion”.

`COc1cc(C(=O)CCN2CCCC2)ccc1O`: the mutagenic call (Species/Cell Type: Salmonella typhimurium, Assay Type: Forward and reverse gene mutation, host-mediated assay, Assay Code: HMAT, Evaluation Type: Evaluation A (Pre-1980)) is “no conclusion”.

`CCCCc1cc2c(c3ccc4ccccc4c13)CCC2=O`: the mutagenic call under setting [8] is “no conclusion”.

As to `CC(=O)O/C=C/Cc1cccc2c1OCO2`, the mutagenic call under setting [8] is reported as “no conclusion”.

In the case of `Nc1ncnc2n[nH]nc12`, the mutagenic call (Species/Cell Type: Vicia faba, Assay Type: Chromosome aberrations, Assay Code: VIC+, Evaluation Type: Evaluation A (Pre-1980)) is “active; positive”.

`C=C/C=C/C=C/C#CC#C/C=C/C`: the mutagenic call (Species/Cell Type: Nonhuman, Assay Type: Sister-chromatid exchange (SCE) in vitro, Assay Code: SC2T, Evaluation Type: Evaluation B (Post-1980)) is recorded as “no conclusion”.

For `O=c1ccc2c(cc(O)c3c4ccccc4nnc23)o1`, the mutagenic call under setting [7] is “no conclusion”.

In the case of `Cc1ccc(N)cc1Cl`, the call (Species/Cell Type: Nonhuman, Assay Code: CCG-, Evaluation Type: Evaluation A (Pre-1980)) was “inactive; negative”.

In the case of `CNC(=O)Oc1cc(C)c(N(C)C)c(C)c1`, the call under setting [4] is “inactive; negative”.
